Read-outs that look alike come from different tables or passages of the source.
Columns and labels:
[1] = molecular target: T1, purified human full-length PARP1 (Homo sapiens, UniProt P09874); assay: HPLC-based kinetic assay, PARP activity (auto-PARylation); assay type: biochemical; conditions: substrate of PARP1, 30° C.
T1 construct: His6 (C); made in house; host or cells: E. coli BL21 (DE3), pET-28a(+)
Description: (§1) High-performance Liquid Chromatography (HPLC)-based Kinetic Assays. Auto-PARylation of PARP1 was carried out in 80 μL assay solutions (30 mM HEPES, pH 8.0, 5 mM MgCl2, 5 mM CaCl2, 1 mM DTT, 100 ng/μL of activated DNA, 100 ng/μL BSA) containing varied concentrations of NAD^+ (50, 100, 250, 450, 600, and 750 μM) or NAD^+ analogues (2, 6; see Table 1) at 30° C. with purified PARP1 enzymes. The reactions were quenched at different time points (NAD^+: 0, 2.5, 5, 10, 15, and 20 min; 2: 0, 60, 120, 180, 240, and 300 min; 6: 0, 5, 10, 15, 20 and 30 min) using 20% ice-cold TCA. After centrifugation, the reaction mixtures were analyzed by reverse phase HPLC using a semipreparative C18 Kinetex column (5 μm, 100 Å, 150×10.0 mm, from Phenomenex Inc, Torrance, Calif.) (mobile phase A: 0.1% formic acid (aq); mobile phase B: 0.1% formic acid in acetonitrile; flow rate=2.0 ml/min; 0-8 min: 0% B, 8-12 min: 0-50% B, 12-13 min: 50-2.5% B, 13-18 min: 2.5-40% B, 18-20 min: 40-0% B) with detection of UV absorbance at 260 nm. […] NADase reaction rates were determined based on the increase in peak areas of the assigned peaks of ADPr and ADPr analogues, while reaction rates for PARP activities were measured based on the decrease in peak areas of the assigned peaks of NAD^+ and NAD^+ analogues excluding NADase activity. […]

wild type PARP1 = wild type PARP1 (Homo sapiens, UniProt P09874); assay: Automodification and click-chemistry based immunoblot activity analysis
wild type PARP1, sequence (P09874 whole entry): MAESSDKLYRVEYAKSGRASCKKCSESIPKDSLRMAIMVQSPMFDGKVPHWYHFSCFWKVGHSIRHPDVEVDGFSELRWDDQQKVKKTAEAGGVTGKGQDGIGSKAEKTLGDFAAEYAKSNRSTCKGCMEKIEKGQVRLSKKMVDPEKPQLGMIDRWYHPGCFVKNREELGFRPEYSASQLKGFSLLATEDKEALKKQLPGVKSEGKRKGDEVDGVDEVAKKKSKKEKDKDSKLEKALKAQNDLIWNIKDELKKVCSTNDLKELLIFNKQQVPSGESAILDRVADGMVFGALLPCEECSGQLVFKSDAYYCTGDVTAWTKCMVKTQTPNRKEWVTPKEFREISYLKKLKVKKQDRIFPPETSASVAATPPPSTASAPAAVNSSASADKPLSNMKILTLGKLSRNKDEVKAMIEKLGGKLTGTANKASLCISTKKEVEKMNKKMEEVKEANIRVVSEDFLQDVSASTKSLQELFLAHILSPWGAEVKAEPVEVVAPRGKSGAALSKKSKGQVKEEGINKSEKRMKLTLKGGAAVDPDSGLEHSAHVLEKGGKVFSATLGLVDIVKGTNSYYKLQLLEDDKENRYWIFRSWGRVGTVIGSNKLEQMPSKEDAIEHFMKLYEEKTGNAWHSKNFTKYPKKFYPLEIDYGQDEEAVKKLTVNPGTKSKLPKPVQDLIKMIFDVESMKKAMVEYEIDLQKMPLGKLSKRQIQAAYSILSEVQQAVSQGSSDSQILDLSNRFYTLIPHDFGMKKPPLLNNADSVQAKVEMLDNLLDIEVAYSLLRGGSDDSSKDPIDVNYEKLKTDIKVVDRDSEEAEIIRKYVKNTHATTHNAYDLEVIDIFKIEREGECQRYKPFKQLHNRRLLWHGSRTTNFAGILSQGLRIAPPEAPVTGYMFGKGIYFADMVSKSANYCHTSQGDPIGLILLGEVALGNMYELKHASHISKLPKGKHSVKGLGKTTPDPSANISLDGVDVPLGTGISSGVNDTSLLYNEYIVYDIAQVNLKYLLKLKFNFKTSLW
Description: Automodification and Immunoblotting Activity Analysis. […] 20 μL of the reaction was taken out and saved for SDS-PAGE analysis. The remaining reaction mixtures were further labeled with azide-biotin (for 1-4) or phosphine-PEG3-Biotin (for 5 and 6) through copper(I)-catalyzed azide alkyne cycloaddition (CuAAC) and Staudinger reaction. The CuAAC reactions were performed for one hours at room temperature in 40 μL volume, which contain 30 μL PARP1 automodification mixtures, 2 mM THPTA, 1 mM CuSO4, 100 μM azide-biotin, and 10 mM sodium ascorbate in PBS. […] The levels of auto-PARylation were evaluated by immunoblots using a streptavidin-HRP conjugate for detection of the biotinylated PARP1 via click chemistry and Staudinger reaction.

[2] = molecular target: T1, purified human full-length PARP1; conditions: literature value; read-out: Km with PARP1, previously reported value; cited from earlier work
[3] = molecular target: T1, purified human full-length PARP1; assay: HPLC-based kinetic assay, NADase activity; assay type: biochemical; conditions: hydrolysis catalyzed by PARP1, 30° C.
Description: as §1

T1 sequence (P09874 whole entry): as above

Km [1]	kcat, PARP activity [1]	PARP1 automodification signal (substrate use), biotinylation-based immunoblot (wild type PARP1; 250 μM NAD^+ or analogue, 5 μM PARP1, 30° C., 2 hours)	Km [3]	kcat, NADase activity [3]	suppression of PARP1 catalytic activity / automodification signal (wild type PARP1; automodification with NAD2 and NAD6, versus no-inhibitor controls)	SMILES	Km [2]
145 ± 36 µM	0.0783 ± 0.0067 s⁻¹	no automodification signals	472 ± 187 µM	0.0065 ± 0.0013 s⁻¹	–	NC(=O)c1ccc[n+]([C@@H]2O[C@H](COP(=O)([O-])OP(=O)(O)OC[C@H]3O[C@@H](n4cnc5c(N)ncnc54)[C@H](O)[C@@H]3O)[C@@H](O)[C@H]2O)c1 [NAD^+, nicotinamide adenine dinucleotide]	97 ± 7 µM
–	–	–	–	–	potently suppressed	C[C@]1(c2nc3c(C(N)=O)cccc3[nH]2)CCCN1 [veliparib]	–
